Among the data in a compilation of properties of binary mixtures (doi:10.1016/j.fluid.2019.06.006) are viscosity values, retold here.

A short description of the data set: xn = mol fraction of the nth substance listed. The note with it: 100 kPa.

As for `OC[C@@H](O)[C@@H](O)[C@H](O)[C@@H](O)CO` + CC(=O)[O-].CC[n+]1ccn(C)c1, the viscosity reads like this: (303.15 K, x1 = 0.0941) 307 mPa·s; (303.15 K, x1 = 0.483) 1491.9 mPa·s; (313.15 K, x1 = 0.0941) 155 mPa·s; (313.15 K, x1 = 0.1894) 143.2 mPa·s; (313.15 K, x1 = 0.483) 572 mPa·s; (313.15 K, x1 = 0.5836) 816 mPa·s. Besides, the viscosity reads like this: (323.15 K, x1 = 0.0941) 88 mPa·s; (323.15 K, x1 = 0.1894) 80.7 mPa·s; (323.15 K, x1 = 0.2859) 292 mPa·s; (323.15 K, x1 = 0.483) 257 mPa·s; (323.15 K, x1 = 0.5836) 348 mPa·s; (333.15 K, x1 = 0.0941) 54.4 mPa·s. Moreover, the viscosity reads like this: (333.15 K, x1 = 0.1894) 49.5 mPa·s; (333.15 K, x1 = 0.2859) 153 mPa·s; (333.15 K, x1 = 0.483) 130.5 mPa·s; (333.15 K, x1 = 0.5836) 170.6 mPa·s.

For the molecule `CC(=O)[O-].CC[n+]1ccn(C)c1` + OC[C@H](O)[C@@H](O)[C@H](O)[C@H](O)CO, the viscosity is, setting by setting: (303.15 K, x2 = 0) 89.4 mPa·s; (323.15 K, x2 = 0) 34.6 mPa·s; (333.15 K, x2 = 0) 23.8 mPa·s.
